According to patent publication US8759363B2, “Quinazoline-based T cell proliferation inhibitors” (Yissum Research Development Company of the Hebrew …, priority 2010, dated 2014):
pIC50: −log10 of the molar value. Entries after “also recorded” stand apart in the source; their conditions may differ.

Legend:
[1] = tested on: PBMC depleted of CD3+ cells; experiment: Proliferation of PBMC depleted of CD3+ cells, BrdU; format: cell-based; settings: Homo sapiens, stimulated by ODN2006 or LPS, stated as similar to ~0.5 μM, read-out: IC50 for PBMCs depleted of CD3+ cells
Description: Blood samples were taken from healthy donors and loaded on a Ficoll density gradient to purify the PBMC population. T cells were purified by human anti-CD3 using an autoMACS instrument (Miltenyi Biotec, Bergisch-Gladbach, Germany), according to the manufacturer's instructions. The identity of T cells was confirmed by flow cytometry, as they stained positive for CD3. Cells were stimulated with ConA (10 μg/ml), ODN2006 (0.5 μg/ml; Enzo Life Sciences), or LPS (50 μg/ml; Sigma-Aldrich, Steinheim, Germany), for 72 h in the presence of the inhibitor, and their proliferation was measured in the BrdU incorporation assay as will be later described.
Proliferation was assessed by BrdU incorporation using a colorimetric ELISA kit (Roche, Germany). Subsequent to labeling with 10 μM BrdU, DNA was denatured and the cells were incubated with anti-BrdU-POD, prior to the addition of colorimetric substrate (TMB). The reaction product was quantified by measuring absorbance at 450 nm in an ELISA plate reader (ELx800 BIO-TEK Instruments Inc.).
PBMC consist of a mixture of mononucleated cells, mostly T cells. To identify the cell type that was inhibited by 2, we first purified T cells from PBMC with an autoMACS apparatus (Miltenyi Biotec), using anti-CD3 antibodies. We were now able to compare three cell populations: total PBMC, CD3+ cells purified from PBMC, and PBMC that had been depleted of CD3+ cells. […]

[2] = tested on: IL-2 secretion by Jurkat and PBMC cells; experiment: IL-2 secretion after stimulation, ELISA; format: cell-based, human; settings: anti-TCR, anti-CD28, PMA, ionomycin, ConA stimulation; up to 5 μM inhibitor
Description: Jurkat or PBMC cells were treated for 12 h with 1 μM, 0.5 μM or no inhibitor. Cells (1×10^6) were plated in 24-well plates (Nunc) and stimulated by C305 (dilution 1:500), anti-CD28 (1:100), PMA (50 ng/ml) or ionomycin (1 μM) for 12 h. Alternately, cells were stimulated for 24, 48 and 72 h in MLR. After stimulation cells were centrifuged at 130×g for 5 minutes at room temperature.
Supernatants were collected and IL-2 was assayed using the IL-2 ELISA kit (BioSource International USA, KH0022) according to the manufacturer's instructions. Absorbance was read at 450 nm in an ELISA plate reader (ELx800 BIO-TEK Instruments Inc.).
Jurkat cells, which originate from leukemia, divide with no need of exogenous IL-2 stimulation since they produce their own, whereas PBMC proliferation requires exogenous IL-2 for growth. As expected, IL-2 secretion levels were lower in cells isolated from the blood (PBMC) than in Jurkat cells (FIGS. 5A-B). We analyzed the effect of 2 on IL-2 secretion in both Jurkat (FIG. 5A) and PBMC (FIG. 5B) cells, using a variety of T cell stimuli. Cells were stimulated with an antibody to the TCR alone or in combination with anti-CD28 or phorbol 12-myristate 13-acetate (PMA). In order to bypass the TCR, we also stimulated the cells with a combination of ionomycin, PMA and anti-CD28 (FIG. 5A). […]

OT1 (resting) cells = experiment: MLR with resting control cells, resting OT1 cells; format: cell-based, mouse; settings: 0.5 μM, 72 h MLR with IL-7; no inhibitor 2459
Description: (§1) The aim of this test was to determine whether 2 affects only the proliferating cells or there is a general mechanism affecting all cell numbers. For this purpose we mixed 3 cell types: […]: BALB/c, 2C and OT1; […]: CB6F1, TEA and OT2. The OT1 and OT2 are splenocytes that were isolated from OT1 and OT2 mice (Jackson Laboratories, Bar Harbor, Me.),
(§2) Thus, the ability to monitor the fate of proliferation and resting cells by FACS was enabled due to the use of the MLR described above for CD4+ and CD8+ and the addition of OT2 and OT1 splenocytes, respectively.
(§3) Proliferating cells often secrete cytokines that induce survival of neighbouring cells; since the proliferation was expected to be inhibited we added 50 ng/ml of IL-7. This concentration is sufficient to keep the cells alive, but not to induce proliferation.
Irradiated Balb splenocytes were incubated for 72 h with 2C, and OT1 splenocytes in the presence of IL-7 W/O inhibitor.
The CD4+ and CD8+ were stimulated to proliferate, whereas in the absence of specific stimuli the OT1 and OT2 cell populations were resting, and theses cells were kept alive by the administration of IL-7. […] The number of 2C and OT1 cells that were treated with 0.5 μM 2 was 286 and 1148, respectively, while the number of 2C and OT1 cells that were treated with 0.5 μM 21 (control) was 4767 and 2468, respectively. This is depicted as a bar-graph in FIG. 8C.

OT2 (resting) cells = experiment: MLR with resting control cells, resting OT2 cells; format: cell-based, mouse; settings: 0.5 μM, 72 h MLR with IL-7; no inhibitor 1025
Description: as §1, §2, §3
The number of TEA and OT2 cells that were treated with 0.5 μM 2 was 1452 and 826, respectively, while the number of 2C and OT1 cells that were treated with 0.5 μM 21 was 3003 and 903, respectively. This is depicted as a bar-graph in FIG. 9C.

For `COc1cc(-c2nc(Nc3ccc(C)cc3)c3ccccc3n2)cc(OC)c1OC` [Compound 2, N-p-tolyl-2-(3,4,5-trimethoxyphenyl)quinazolin-4-amine], the pIC50 [1] was about 6.30, the “effect on IL-2 levels in the medium” value [2] was “no effect; also recorded: did not affect” and the “number of OT1 (resting) cells” value (OT1 (resting) cells) was 1148. For the same compound, the “number of OT2 (resting) cells” value (OT2 (resting) cells) was 826.
